Experimental data taken from PMC7307922 (Journal of Medicinal Chemistry, 2020).
In brackets after ≈: the same amount, converted by molar mass. Several values for one entry are separate records, joined by “and”; a condition that tells them apart may be missing. Equal values may be shown once.

Legend:
human FFA4 = biological target: T1, human FFA4 (Homo sapiens, UniProt Q5NUL3); assay: FFA4 counterscreen, arrestin BRET assay; assay type: cell-based; details: 10 μM
T1 construct: expressed in transfected cells; host or cells: HEK293T, transient co-transfection
T1 sequence (Q5NUL3 1-361): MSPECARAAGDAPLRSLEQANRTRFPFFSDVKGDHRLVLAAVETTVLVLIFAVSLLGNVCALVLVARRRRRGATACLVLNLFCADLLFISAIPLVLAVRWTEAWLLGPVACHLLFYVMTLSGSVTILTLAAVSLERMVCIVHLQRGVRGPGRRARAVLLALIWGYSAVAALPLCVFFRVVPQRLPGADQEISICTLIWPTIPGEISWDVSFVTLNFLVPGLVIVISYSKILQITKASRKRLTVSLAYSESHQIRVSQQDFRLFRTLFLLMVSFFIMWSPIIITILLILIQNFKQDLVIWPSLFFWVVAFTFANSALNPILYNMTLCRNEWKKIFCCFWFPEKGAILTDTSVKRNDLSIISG
Description: (§1) Counter screening against FFA1, FFA2 , FF A4 and GPR84
(§2) Counter screening against FFA1 and FFA4 was carried out using a modified version of a previously described bioluminescence resonance energy transfer (BRET) designed to assess recruitment of b-ar r estin-2 to each receptor.2 Briefly, HEK293T cells were co-transfected with plasmids en coding either human FFA1 or human FFA4 tagged at their C -termini with eYFP and with a plasmid encoding b-ar r estin-2 tagged at its N-terminal with Nanoluciferase. 24 h post transfection cells were seeded into black with clear bottom 96-well plates that had been coated with poly-D-lysine. Cells were then cultured a further 24 h prior to experiments. Cells were then washed twice with Hank’s Balanced salt solution supplemented with 10 mM HEPES (HBSSH) then incubated at 37 °C in HBSSH for 30 min prior to running the assay. The Nluc substrate, coelenterazine h was then added to a f inal concentration of 5 µM and cells were incubated at 37 °C for 10 min prior to adding test agonists. Following a further 5 min incubation, luminescent emission at 475 nm and 535 nm was measured using a Pherastar FS reader (BMG Labtech, Aylesbury, UK) pla te reader set for bottom plate optics. The BRET ratio was then calculated as 535/475 emissions and all BRET ratio values were normalized against the maxima l BRET ratio obtained using reference agonists for the respective receptors (TUG -891 for FFA4, TUG-770 for FFA1). For antagonism studies, the same protocol was used, however the antagonist was added 15 min prior to the addition of an EC 80 concentration of the reference agonist for each receptor. […]

human FFA2 = biological target: T2, human FFA2 (Homo sapiens, UniProt O15552); assay: FFA2 counterscreen, cAMP assay; assay type: cell-based; details: 10 μM
T2 construct: expressed in transfected cells; host or cells: Flp-In T-REx 293, doxycycline-induced
T2 sequence (O15552 1-330): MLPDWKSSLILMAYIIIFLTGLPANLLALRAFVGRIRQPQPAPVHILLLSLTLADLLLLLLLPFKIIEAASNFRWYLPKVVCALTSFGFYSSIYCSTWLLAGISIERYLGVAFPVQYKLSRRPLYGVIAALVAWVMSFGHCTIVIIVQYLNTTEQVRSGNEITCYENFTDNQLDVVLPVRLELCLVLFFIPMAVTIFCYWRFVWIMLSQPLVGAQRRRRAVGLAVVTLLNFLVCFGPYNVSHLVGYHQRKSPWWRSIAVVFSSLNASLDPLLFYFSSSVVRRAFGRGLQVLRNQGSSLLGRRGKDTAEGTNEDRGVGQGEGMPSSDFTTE
Description: (§3) Counter screening against FFA1, FFA2 , FF A4 and GPR84 […]
Counter screening for FFA2 was carried out using a cAMP assay. Flp-In T-Re x 293 cells generated to stably express human FFA2 tagged at is C-terminal with eYFP were first treated with doxycycline (100 ng/mL) overnight to induce receptor expressi on. Cells were then detached and used directly in an HT R-FRET cAMP assay (CisBio) according to the manufacturer’s protocol and measured using a Pherastar FS plate reader (BMG Labtech, Aylesbury, UK). For these experiments, 2000 cells were used per well in a low volume 384-well plate and compounds were tested against their ability to inhibit the cAMP response to 1 µM forskolin for 30 min. […]

[1] = biological target: T3, Cav1.2 (L-type) Human Calcium Ion Channel (Homo sapiens, UniProt Q13936); assay: Cav1.2 (L-type) calcium ion channel binding assay, Panlabs; details: 10 μM
T3 construct: Panlabs
Description: Counterscreen data on 1, 16, 57 and 63
Cav1.2 (L-type) Human Calcium Ion Channel Binding -20% 13% 12% 1%
(Antagonist Radioligand) Assay, Panlabs, 10 µM

log D7.4 measurement = assay type: physicochemical; details: pH 7.4; read-out: logD7.4
Description: (§4) Solubility and log D7.4 measurements were performed in accordance to the previously published procedures.[35]

[2] = Stability toward mouse liver microsomes; details: remaining after 40 min incubation with MLMs
Description: The study was performed by Bienta (www.bienta.net). Mouse hepatic microsomes were isolated from pooled and perfused livers of male BALB/c mice (n = 50). Isolation was performed according to the standard protocol.[36]
Microsomal incubations were carried out in 96-well plates in 5 aliquots of 40 μL each (one for each time point). Liver microsomal incubation medium comprised PBS (100 mM, pH 7.4), MgCl2 (3.3 mM), NADPH (3 mM), glucose-6-phosphate (5.3 mM), and glucose-6-phosphate dehydrogenase (0.67 units/mL) with 0.42 mg of liver microsomal protein per ml. In the control reactions, the NADPH-cofactor system was substituted with PBS. […] Each reaction was performed in duplicates. Five time points over 40 min were analyzed. The reactions were stopped by adding 12 volumes of 90% acetonitrile–water to incubation aliquots, followed by protein sedimentation by centrifuging at 5500 rpm for 3 min. […]. Supernatants were analyzed using HPLC-MS/MS on an API 3000 PE instrument.

[3] = Kinetic aqueous solubility in PBS pH 7.4; assay type: physicochemical; details: for solubility: phosphate buffered saline, pH 7.4, read-out: Aq. solub.
Description: as §4

human FFA1 = biological target: T4, human FFA1 (Homo sapiens, UniProt O14842); assay: FFA1 counterscreen, arrestin BRET assay; assay type: cell-based; details: 10 μM
T4 construct: expressed in transfected cells; host or cells: HEK293T, transient co-transfection
Description: as §1, §2

human GPR84 = human GPR84 (Homo sapiens, UniProt Q9NQS5); assay: GPR84 counterscreen, cAMP assay; assay type: cell-based; details: 10 μM
Description: as §3
(100 ng/mL) overnight to induce receptor expressi on. […]
Counter screening for GPR84 was carried out using a cAMP assay. Flp -In T-Re x 293 cells generated to stably express human GPR84 tagged at is C-terminal with Gia were first treated with doxycycline […]
HT R-FRET cAMP assay (CisBio) according to the manufacturer’s protocol and measured using an Envision plate reader (PerkinElmer). For these experiments, 5000 cells were used per well in a low volume 384-well plate and compounds were tested against their ability to inhibit the cAMP response to 1 µM forskolin for 45 min. TUG-1985 was used as reference agonist. […]

Sequence of human GPR84 (Q9NQS5 whole entry): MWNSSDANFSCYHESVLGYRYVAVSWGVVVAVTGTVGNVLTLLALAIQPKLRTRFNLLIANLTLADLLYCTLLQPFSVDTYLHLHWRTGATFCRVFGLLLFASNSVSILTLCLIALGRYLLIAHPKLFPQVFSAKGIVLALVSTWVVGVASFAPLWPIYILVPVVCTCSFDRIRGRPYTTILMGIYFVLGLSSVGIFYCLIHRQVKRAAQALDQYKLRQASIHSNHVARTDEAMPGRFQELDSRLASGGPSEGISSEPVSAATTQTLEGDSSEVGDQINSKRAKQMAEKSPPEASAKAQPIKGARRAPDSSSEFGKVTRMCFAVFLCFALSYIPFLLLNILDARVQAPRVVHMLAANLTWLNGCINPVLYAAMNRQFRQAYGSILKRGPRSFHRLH
T4 sequence (O14842 whole entry): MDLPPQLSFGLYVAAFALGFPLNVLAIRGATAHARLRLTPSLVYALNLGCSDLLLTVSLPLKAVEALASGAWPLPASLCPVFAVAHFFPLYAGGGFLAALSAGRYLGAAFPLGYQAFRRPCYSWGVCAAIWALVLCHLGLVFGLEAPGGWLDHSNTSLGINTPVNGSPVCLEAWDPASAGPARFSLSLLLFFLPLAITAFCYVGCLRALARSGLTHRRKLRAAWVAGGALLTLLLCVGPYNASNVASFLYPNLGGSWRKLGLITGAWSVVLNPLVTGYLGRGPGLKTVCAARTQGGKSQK
T3 sequence (Q13936 whole entry): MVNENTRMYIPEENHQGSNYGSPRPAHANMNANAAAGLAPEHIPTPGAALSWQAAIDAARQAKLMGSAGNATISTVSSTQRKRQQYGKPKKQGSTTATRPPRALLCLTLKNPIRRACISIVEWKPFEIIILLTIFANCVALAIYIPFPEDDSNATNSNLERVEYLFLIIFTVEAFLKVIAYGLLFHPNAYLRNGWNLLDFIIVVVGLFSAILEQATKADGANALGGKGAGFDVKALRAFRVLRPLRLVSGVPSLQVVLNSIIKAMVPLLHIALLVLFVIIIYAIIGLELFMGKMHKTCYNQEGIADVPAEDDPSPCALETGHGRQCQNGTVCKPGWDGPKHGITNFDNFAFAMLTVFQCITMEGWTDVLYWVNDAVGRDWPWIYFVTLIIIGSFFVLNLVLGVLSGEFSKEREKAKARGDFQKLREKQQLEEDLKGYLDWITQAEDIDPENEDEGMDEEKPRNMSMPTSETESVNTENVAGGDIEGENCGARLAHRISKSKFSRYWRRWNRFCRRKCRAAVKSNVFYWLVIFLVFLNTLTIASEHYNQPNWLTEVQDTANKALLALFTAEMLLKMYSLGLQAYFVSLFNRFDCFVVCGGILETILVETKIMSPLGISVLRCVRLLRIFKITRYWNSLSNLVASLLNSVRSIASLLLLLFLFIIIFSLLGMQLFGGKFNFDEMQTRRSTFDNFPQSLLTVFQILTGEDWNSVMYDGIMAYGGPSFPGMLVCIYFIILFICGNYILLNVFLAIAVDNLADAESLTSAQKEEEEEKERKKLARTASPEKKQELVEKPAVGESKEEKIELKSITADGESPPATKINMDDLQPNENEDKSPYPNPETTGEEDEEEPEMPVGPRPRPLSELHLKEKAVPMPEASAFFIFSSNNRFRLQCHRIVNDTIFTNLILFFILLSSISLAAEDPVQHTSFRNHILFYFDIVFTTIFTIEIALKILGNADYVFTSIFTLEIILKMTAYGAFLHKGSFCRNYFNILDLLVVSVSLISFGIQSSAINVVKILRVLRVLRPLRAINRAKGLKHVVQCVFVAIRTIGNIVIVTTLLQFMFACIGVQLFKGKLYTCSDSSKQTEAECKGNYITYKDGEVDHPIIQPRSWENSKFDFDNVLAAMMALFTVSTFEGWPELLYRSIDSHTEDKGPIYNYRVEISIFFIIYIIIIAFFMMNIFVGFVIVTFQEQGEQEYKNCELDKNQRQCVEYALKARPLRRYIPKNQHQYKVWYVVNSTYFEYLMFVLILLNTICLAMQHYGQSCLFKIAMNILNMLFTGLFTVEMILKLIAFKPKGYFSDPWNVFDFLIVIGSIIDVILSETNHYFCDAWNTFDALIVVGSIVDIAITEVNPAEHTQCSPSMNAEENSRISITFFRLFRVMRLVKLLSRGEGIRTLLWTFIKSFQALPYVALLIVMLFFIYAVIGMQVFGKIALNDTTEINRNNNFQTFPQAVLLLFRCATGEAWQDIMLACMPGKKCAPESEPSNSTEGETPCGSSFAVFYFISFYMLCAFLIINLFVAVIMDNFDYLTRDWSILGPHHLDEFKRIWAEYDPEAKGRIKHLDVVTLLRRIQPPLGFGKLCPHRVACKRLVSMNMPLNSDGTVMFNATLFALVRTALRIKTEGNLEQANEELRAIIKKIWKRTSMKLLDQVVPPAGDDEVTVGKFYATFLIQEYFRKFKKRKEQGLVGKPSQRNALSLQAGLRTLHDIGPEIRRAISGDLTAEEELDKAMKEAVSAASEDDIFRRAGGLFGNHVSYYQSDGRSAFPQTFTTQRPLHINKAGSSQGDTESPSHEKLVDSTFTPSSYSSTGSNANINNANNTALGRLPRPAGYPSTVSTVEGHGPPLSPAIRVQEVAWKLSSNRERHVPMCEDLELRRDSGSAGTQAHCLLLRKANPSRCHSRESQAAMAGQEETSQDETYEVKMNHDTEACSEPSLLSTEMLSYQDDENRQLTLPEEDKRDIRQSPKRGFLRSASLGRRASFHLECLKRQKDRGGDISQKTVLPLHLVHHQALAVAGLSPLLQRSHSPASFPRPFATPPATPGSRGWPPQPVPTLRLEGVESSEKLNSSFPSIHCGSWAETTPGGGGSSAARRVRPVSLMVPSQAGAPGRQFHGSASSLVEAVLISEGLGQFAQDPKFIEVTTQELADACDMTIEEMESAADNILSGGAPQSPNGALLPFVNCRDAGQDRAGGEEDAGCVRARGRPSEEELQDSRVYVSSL
T3 sequence (Q08289 whole entry partner): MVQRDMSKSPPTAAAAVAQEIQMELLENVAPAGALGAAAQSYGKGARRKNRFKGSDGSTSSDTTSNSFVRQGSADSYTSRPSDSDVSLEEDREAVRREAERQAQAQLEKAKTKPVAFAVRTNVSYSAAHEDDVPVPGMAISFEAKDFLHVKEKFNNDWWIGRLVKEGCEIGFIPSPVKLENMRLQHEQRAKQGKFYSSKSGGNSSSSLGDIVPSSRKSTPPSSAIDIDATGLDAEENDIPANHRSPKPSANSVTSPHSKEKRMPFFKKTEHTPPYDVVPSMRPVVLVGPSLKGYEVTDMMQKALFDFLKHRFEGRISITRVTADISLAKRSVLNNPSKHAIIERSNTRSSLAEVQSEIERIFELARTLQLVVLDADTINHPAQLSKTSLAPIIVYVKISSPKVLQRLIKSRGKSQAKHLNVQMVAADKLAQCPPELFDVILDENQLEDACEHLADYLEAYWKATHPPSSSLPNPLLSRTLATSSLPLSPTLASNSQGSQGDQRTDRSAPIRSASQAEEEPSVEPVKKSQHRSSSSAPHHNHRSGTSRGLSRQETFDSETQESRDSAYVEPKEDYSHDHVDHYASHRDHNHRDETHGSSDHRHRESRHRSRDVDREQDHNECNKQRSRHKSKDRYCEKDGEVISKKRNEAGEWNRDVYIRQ
T3 sequence (P54289 25-946 partner limits assumed): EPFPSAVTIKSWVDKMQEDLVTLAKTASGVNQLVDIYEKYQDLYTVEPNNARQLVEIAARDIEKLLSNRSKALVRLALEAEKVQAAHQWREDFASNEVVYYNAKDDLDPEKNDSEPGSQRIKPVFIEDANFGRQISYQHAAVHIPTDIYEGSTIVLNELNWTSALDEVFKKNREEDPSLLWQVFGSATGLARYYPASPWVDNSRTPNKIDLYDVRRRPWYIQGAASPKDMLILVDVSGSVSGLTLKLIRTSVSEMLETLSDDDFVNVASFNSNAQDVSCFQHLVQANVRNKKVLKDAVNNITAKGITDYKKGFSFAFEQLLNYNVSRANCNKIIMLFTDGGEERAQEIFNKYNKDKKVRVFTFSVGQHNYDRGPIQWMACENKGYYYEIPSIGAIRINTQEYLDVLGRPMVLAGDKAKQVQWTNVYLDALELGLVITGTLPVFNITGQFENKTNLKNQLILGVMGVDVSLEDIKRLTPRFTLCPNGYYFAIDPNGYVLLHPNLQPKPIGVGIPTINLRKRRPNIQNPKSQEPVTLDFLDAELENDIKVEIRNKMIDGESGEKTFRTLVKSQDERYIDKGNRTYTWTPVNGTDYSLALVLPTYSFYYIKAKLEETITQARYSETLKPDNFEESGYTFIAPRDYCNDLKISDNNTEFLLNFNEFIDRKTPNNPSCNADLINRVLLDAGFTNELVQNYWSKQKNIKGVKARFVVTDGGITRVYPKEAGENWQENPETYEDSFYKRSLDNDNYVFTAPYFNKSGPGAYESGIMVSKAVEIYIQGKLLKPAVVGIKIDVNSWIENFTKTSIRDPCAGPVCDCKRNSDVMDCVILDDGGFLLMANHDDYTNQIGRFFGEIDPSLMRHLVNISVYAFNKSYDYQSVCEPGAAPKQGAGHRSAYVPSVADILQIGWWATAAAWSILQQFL
T3 sequence (P54289 947-1103 partner limits assumed): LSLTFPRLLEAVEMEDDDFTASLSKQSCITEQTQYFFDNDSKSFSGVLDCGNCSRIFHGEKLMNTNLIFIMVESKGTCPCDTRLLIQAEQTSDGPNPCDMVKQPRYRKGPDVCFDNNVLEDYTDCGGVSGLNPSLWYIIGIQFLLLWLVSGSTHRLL

Compound | activity at FFA4 (human FFA4) | activity at FFA2 (human FFA2) | Cav1.2 (L-type) binding (antagonist radioligand) [1] | activity at L-type calcium ion channels [1] | logD at 24 h (log D7.4 measurement) | MLM (%) remaining [2] | increase of solubility relative to 16 ([3]; kinetic solubility) | solubility [3] | activity at FFA1 (human FFA1) | GPR84, agonist, cAMP assay (human GPR84) | activity at GPR84 (human GPR84) | logD (log D7.4 measurement)
CCCC1C(C(=O)Nc2cc(Cl)ccc2Cl)=C(C)NC2=C1C(=O)CCC2 (centres unmarked) [Compound 57, N-(2,5-Dichlorophenyl)-2-methyl-5-oxo-4-propyl-1,4,5,6,7,8-hexahydroquinoline-3-carboxamide] | No significant activity | No significant activity | 12% | No significant activity | 4.25 | 1−2% and 1% | 6 fold | 33 µM (≈ 13 µg/mL) | No significant activity | 1±4% | No significant activity | –
CC1=C(C(=O)Nc2cc(Cl)ccc2Cl)C(c2ccco2)C2=C(CCCC2=O)N1 (centres unmarked) [Compound 16, reference compound] | No significant activity | No significant activity | 13% | No significant activity | – | 1−2% and 1% | – | 5 µM (≈ 2.09 µg/mL) | No significant activity | 2±4% | No significant activity | 3.19
CC1=C(C(=O)Nc2ccccc2C)C(c2ccco2)C2=C(CCCC2=O)N1 (centres unmarked) [Compound 1, 4-(Furan-2-yl)-2-methyl-5-oxo-N-(o-tolyl)-1,4,5,6,7,8-hexahydroquinoline-3-carboxamide, reference compound] | No significant activity | No significant activity | -20% | No significant activity | – | 52% | – | 190 µM (≈ 68.9 µg/mL) | No significant activity | 1±7% | No significant activity | 2.05
CC1=C(C(=O)Nc2cc(Cl)ccc2Cl)C(C2CCCC2)C2=C(CCCC2=O)N1 (centres unmarked) [Compound 63, 4-Cyclopentyl-N-(2,5-dichlorophenyl)-2-methyl-5-oxo-1,4,5,6,7,8-hexahydroquinoline-3-carboxamide] | No significant activity | No significant activity | 1% | No significant activity | – | 41% | – | 9 µM (≈ 3.77 µg/mL) | No significant activity | 0±1% | No significant activity | > 4.3
